Measured values published in patent publication US11505548B2, “Heterocyclic compounds and their use for treatment of helminthic infections and diseases” (Celgene Corporation, priority 2019, dated 2022).

tested on: microfilariae of Dirofilaria immitis; assay: Dirofilaria immitis, Microfilaria (DiMF) Assay; format: cell-based; conditions: read-out: D. immitis activity level (IC50 or MED)
Method: Heartworm Screen Dirofilaria immitis (D. immitis)
Dirofilaria immitis, Microfilaria (DiMF) Assay.
Compounds were dissolved and serially diluted in DMSO. Aliquots were spotted to the empty wells of assay plates. Media and microfilariae of Dirofilaria immitis were added to each well to dilute the test compounds to the desired concentrations. Assay plates were incubated for approximately 72 hours, and the larvae in each well were observed microscopically for drug effect. Microfilariae in each well were assessed subjectively for survival or paralysis, and results were reported as Minimum Effective Dose (MED).
Active and selective (DiL4 vs. DiMF potency) example compounds were subsequently evaluated in heartworm positive dog studies to correlate the in vitro selectivity profile with in vivo effects on circulating microfilariae.

| Compound | IC50 [nM] |
| --- | --- |
| CC(C)Oc1cccnc1-c1nsc(Nc2cc(N3CCCC3)ccn2)n1 [Compound 94, 3-(3-isopropoxy-pyridin-2-yl)-N-(4-(pyrrolidin-1-yl)pyridin-2-yl)-1,2,4-thiadiazol-5-amine] | 500 to 5000 |
| CC(C)c1cnc(Nc2nc(-c3ccc(OC4CC4)cn3)ns2)cc1C(F)(F)F [Compound 95, 3-(5-cyclopropoxy-pyridin-2-yl)-N-(5-isopropyl-4-(trifluoromethyl)pyridin-2-yl)-1,2,4-thiadiazol-5-amine] | < 200 |
| CC(C)c1cnc(Nc2nc(-c3cc(OC4CC4)ccn3)ns2)cc1C(F)(F)F [Compound 96, 3-(4-cycloprop-oxypyridin-2-yl)-N-(5-isopropyl-4-(trifluoromethyl)pyridin-2-yl)-1,2,4-thiadiazol-5-amine] | < 200 |
| CC(C)c1cnc(Nc2nc(-c3ncccc3OC3CC3)ns2)cc1C(F)(F)F [Compound 97, 3-(3-cycloprop-oxypyridin-2-yl)-N-(5-isopropyl-4-(trifluoromethyl)pyridin-2-yl)-1,2,4-thiadiazol-5-amine] | < 200 |
| Cc1cccnc1Nc1nc(-c2cc(C(F)(F)F)c(OC3CC3)cn2)ns1 [Compound 102, 3-(5-cyclo-propoxy-4-(trifluoromethyl)pyridin-2-yl)-N-(3-methyl-pyridin-2-yl)-1,2,4-thiadiazol-5-amine] | 200 to 500 |
| O=C(NC1CC(F)(F)C1)c1ccc(Nc2nc(-c3ccc(OC4CC4)cn3)ns2)nc1 [Compound 107, 6-(3-(5-cyclo-propoxypyridin-2-yl)-1,2,4-thiadiazol-5-ylamino)-N-(3,3-difluoro-cyclobutyl) nicotinamide] | 500 to 5000 |
| CNc1cccnc1Nc1nc(-c2ccc(OC(C)C)cn2)ns1 [Compound 108, N2-(3-(5-isopropoxypyridin-2-yl)-1,2,4-thiadiazol-5-yl)-N3-methyl-pyridine-2,3-diamine] | 200 to 500 |
| Cc1cccnc1Nc1nc(-c2cc(C(F)(F)F)c(OCC3CC3)cn2)ns1 [Compound 110, 3-(5-(cyclo-propylmethoxy)-4-(trifluoromethyl)pyridin-2-yl)-N-(3-methyl-pyridin-2-yl)-1,2,4-thiadiazol-5-amine] | 200 to 500 |
| CC(C)Oc1ccc(-c2nsc(Nc3ncccc3C(C)C)n2)nc1 [Compound 115, 3-(5-isopropoxy-pyridin-2-yl)-N-(3-isopropyl-pyridin-2-yl)-1,2,4-thiadiazol-5-amine] | < 200 |
| CC(C)Oc1ccc(-c2nsc(Nc3ncccc3N3CCCC3)n2)nc1 [Compound 116, 3-(5-isopropoxy-pyridin-2-yl)-N-(3-(pyrrolidin-1-yl)pyridin-2-yl)-1,2,4-thiadiazol-5-amine] | 500 to 5000 |
| CN(C)c1cccnc1Nc1nc(-c2ccc(OCC3CC3)cn2)ns1 [Compound 118, N2-(3-(5-(cyclopropyl-methoxy)pyridin-2-yl)-1,2,4-thiadiazol-5-yl)-N3,N3-dimethyl-pyridine-2,3-diamine] | 500 to 5000 |
| CN(C)c1cccnc1Nc1nc(-c2ccc(OC(F)F)cn2)ns1 [Compound 120, N2-(3-(5-(difluoromethoxy)pyridin-2-yl)-1,2,4-thiadiazol-5-yl)-N3,N3-dimethyl-pyridine-2,3-diamine] | 500 to 5000 |
| CN(C)c1cccnc1Nc1nc(-c2ccc(F)cn2)ns1 [Compound 121, N2-(3-(5-fluoro-pyridin-2-yl)-1,2,4-thiadiazol-5-yl)-N3,N3-dimethylpyridine-2,3-diamine] | 500 to 5000 |
| Cc1cccnc1Nc1nc(-c2cnc(OC(C)C)cn2)ns1 [Compound 124, 3-(5-isopropoxy-pyrazin-2-yl)-N-(3-methyl-pyridin-2-yl)-1,2,4-thiadiazol-5-amine] | 500 to 5000 |
| CC(C)c1cccnc1Nc1nc(-c2ccc(OC(F)F)cn2)ns1 [Compound 127, 3-(5-(difluoro-methoxy)pyridin-2-yl)-N-(3-isopropyl-pyridin-2-yl)-1,2,4-thiadiazol-5-amine] | 500 to 5000 |
| COc1cccnc1Nc1nc(-c2cc(C(F)(F)F)c(OC3CC3)cn2)ns1 [Compound 134, 3-(5-cyclo-propoxy-4-(trifluoromethyl)pyridin-2-yl)-N-(3-methoxy-pyridin-2-yl)-1,2,4-thiadiazol-5-amine] | 500 to 5000 |
| Cc1nccnc1Nc1nc(-c2ccc(OC(C)C)cn2)ns1 [Compound 135, 3-(5-isoprop-oxypyridin-2-yl)-N-(3-methyl-pyrazin-2-yl)-1,2,4-thia-diazol-5-amine] | 200 to 500 |
| COc1cccnc1Nc1nc(-c2ccc(OC3CC(F)(F)C3)cn2)ns1 [Compound 137, 3-(5-(3,3-difluorocyclo-butoxy)pyridin-2-yl)-N-(3-methoxypyridin-2-yl)-1,2,4-thiadiazol-5-amine] | 500 to 5000 |
| CC(C)Oc1ccc(-c2nsc(Nc3nccnc3N(C)C)n2)nc1 [Compound 144, N2-(3-(5-isoprop-oxypyridin-2-yl)-1,2,4-thiadiazol-5-yl)-N3,N3-dimethyl-pyrazine-2,3-diamine] | 200 to 500 |

| Compound | IC50 [nM] |
| --- | --- |
| Cc1cccnc1Nc1nc(-c2cc(OC(C)C)c(C(F)(F)F)cn2)ns1 [Compound 152, 3-(4-isoprop-oxy-5-(trifluoromethyl)pyridin-2-yl)-N-(3-methylpyridin-2-yl)-1,2,4-thia-diazol-5-amine] | 200 to 500 |
| CC(C)Oc1ccc(-c2nsc(Nc3ncccc3N(C)C)n2)nn1 [Compound 155, N2-(3-(6-isopropoxy-pyridazin-3-yl)-1,2,4-thiadiazol-5-yl)-N3,N3-dimethyl-pyridine-2,3-diamine] | 500 to 5000 |
| CC(C)Oc1cnc(-c2nsc(Nc3ncccc3N(C)C)n2)cc1C(F)(F)F [Compound 156, N2-(3-(5-isopropoxy-4-(trifluoromethyl)pyridin-2-yl)-1,2,4-thiadiazol-5-yl)-N3,N3-dimethyl-pyridine-2,3-diamine] | 200 to 500 |
| CC(=O)N(C)c1cccnc1Nc1nc(-c2ccc(OC(C)C)cn2)ns1 [Compound 157, N-(2-(3-(5-isopropoxy-pyridin-2-yl)-1,2,4-thiadiazol-5-ylamino)pyridin-3-yl)-N-methyl-acetamide] | 500 to 5000 |
| CC(=O)Nc1cccnc1Nc1nc(-c2ccc(OC(C)C)cn2)ns1 [Compound 161, N-(2-(3-(5-isopropoxy-pyridin-2-yl)-1,2,4-thiadiazol-5-ylamino)pyridin-3-yl)acetamide] | 500 to 5000 |
| COc1cc(C(C)C)cnc1Nc1nc(-c2ccc(OC(C)C)cn2)ns1 [Compound 166, 3-(5-isopropoxy-pyridin-2-yl)-N-(5-isopropyl-3-methoxypyridin-2-yl)-1,2,4-thiadiazol-5-amine] | 500 to 5000 |
| COc1cccnc1Nc1nc(-c2cc(C(F)(F)F)c(OC(C)C)cn2)ns1 [Compound 167, 3-(5-isopropoxy-4-(trifluoromethyl)pyridin-2-yl)-N-(3-methoxypyridin-2-yl)-1,2,4-thiadiazol-5-amine] | 500 to 5000 |
| CC(C)Oc1cnc(-c2nsc(Nc3ncccc3C(C)C)n2)cc1C(F)(F)F [Compound 168, 3-(5-isoprop-oxy-4-(trifluoromethyl)pyridin-2-yl)-N-(3-isopropyl-pyridin-2-yl)-1,2,4-thiadiazol-5-amine] | 200 to 500 |
| CC(C)Oc1ccc(-c2nsc(Nc3ncccc3N(C)C(=O)C3CC3)n2)nc1 [Compound 170, N-(2-(3-(5-isopropoxy-pyridin-2-yl)-1,2,4-thiadiazol-5-ylamino)pyridin-3-yl)-N-methylcyclo-propanecarbox-amide] | 500 to 5000 |
| CC(C)Oc1ccc(-c2nsc(Nc3ncccc3N(C)C(=O)C3CCC3)n2)nc1 [Compound 171, N-(2-(3-(5-isopropoxy-pyridin-2-yl)-1,2,4-thiadiazol-5-ylamino)pyridin-3-yl)-N-methylcyclo-butane-carboxamide] | 500 to 5000 |
| CC(C)Oc1ccc(-c2nsc(Nc3ncccc3N(C)C(=O)C3CCCC3)n2)nc1 [Compound 172, N-(2-(3-(5-isopropoxy-pyridin-2-yl)-1,2,4-thiadiazol-5-ylamino)pyridin-3-yl)-N-methylcyclo-pentane-carboxamide] | 200 to 500 |
| COc1ccnc(-c2nsc(Nc3ccc(C(F)(F)F)cn3)n2)c1 [Compound 176, 3-(4-methoxy-pyridin-2-yl)-N-(5-(trifluoromethyl)pyridin-2-yl)-1,2,4-thiadiazol-5-amine] | < 200 |
| COc1ccnc(-c2nsc(Nc3ccc(C(C)C)cn3)n2)c1 [Compound 177, N-(5-isopropyl-pyridin-2-yl)-3-(4-methoxy-pyridin-2-yl)-1,2,4-thiadiazol-5-amine] | < 200 |
| CC(C)Oc1ccc(-c2nsc(Nc3ncccc3N3CCCC3=O)n2)nc1 [Compound 178, 1-(2-(3-(5-isopropoxy-pyridin-2-yl)-1,2,4-thiadiazol-5-ylamino)pyridin-3-yl)pyrrolidin-2-one] | 500 to 5000 |
| CC(C)Oc1cnc(-c2nsc(Nc3ncccc3N3CCCC3=O)n2)cc1C(F)(F)F [Compound 179, 1-(2-(3-(5-isopropoxy-4-(trifluoromethyl)pyridin-2-yl)-1,2,4-thiadiazol-5-ylamino)pyridin-3-yl)pyrrolidin-2-one] | 500 to 5000 |
| COc1ccnc(-c2nsc(Nc3cc(C(F)(F)F)c(C(C)C)cn3)n2)c1 [Compound 182, N-(5-iso-propyl-4-(trifluoro-methyl)pyridin-2-yl)-3-(4-methoxy-pyridin-2-yl)-1,2,4-thiadiazol-5-amine] | < 200 |
| COc1ccc(Nc2nc(-c3cc(OC4CCCCC4)ccn3)ns2)nc1 [Compound 183, 3-(4-(cyclo-hexyloxy)pyridin-2-yl)-N-(5-methoxypyridin-2-yl)-1,2,4-thiadiazol-5-amine] | < 200 |
| CC(C)Oc1cnc(-c2nsc(Nc3ncccc3N(C)C(=O)C3CC3)n2)cc1C(F)(F)F [Compound 186, N-(2-(3-(5-isopropoxy-4-(trifluoro-methyl)pyridin-2-yl)-1,2,4-thiadiazol-5-ylamino)pyridin-3-yl)-N-methylcyclo-propanecarbox-amide] | 200 to 500 |
